# US10118928B2, “Treatment of H. pylori infections using MTAN inhibitors” (ALBERT EINSTEIN COLLEGE OF MEDICINE, INC., priority 2014, dated 2018)
# Test system: H. pylori
# Test: MIC90 against H. pylori, growth on tryptic soy agar with 5% horse blood
# Format: cell-based
# Design: unit not given here
# Conditions: Table 1; 72 h, microaerophilic, 37° C.
# Description: Bacterial Growth. H. pylori were grown for 72 hours under microaerophilic condition (5% O2, 10% CO2 and 85% N2) at 37° C. on tryptic soy agar with 5% horse blood. To determine the MIC values, the test substance was added to the gel solution right before pouring. To compare the zones of inhibition, specific antibiotics were added to the center of disc after spreading H. pylori, and then H. pylori was allowed to grow for 72 hours under microaerophilic condition at 37° C.
row,MIC90 against H. pylori,SMILES
1,80,CCCCCCCCC[C@@H](CO)NCc1c[nH]c2c(N)ncnc12
2,>80,Nc1ncnc2c(CN[C@H](CO)CSc3ccc(Cl)cc3)c[nH]c12
3,>80,C[C@@H](CO)NCc1c[nH]c2c(N)ncnc12
4,80,CCCCCCCSC[C@@H](CO)NCc1c[nH]c2c(N)ncnc12
5,>80,CC(C)[C@@H](CO)NCc1c[nH]c2c(N)ncnc12
6,>80,CC(C)C[C@@H](CO)NCc1c[nH]c2c(N)ncnc12
7,>80,CSC[C@@H](CO)NCc1c[nH]c2c(N)ncnc12
8,>80,CSC[C@H](CO)NCc1c[nH]c2c(N)ncnc12
9,>80,CC[C@H](C)[C@@H](CO)NCc1c[nH]c2c(N)ncnc12

# The remaining lines, values behind:
row,SMILES,MIC90 against H. pylori
1,Nc1ncnc2c(CN[C@H](CO)CSc3cnccn3)c[nH]c12,8
2,CCCCC[C@@H](CO)NCc1c[nH]c2c(N)ncnc12,8
3,CCCCCC[C@@H](CO)NCc1c[nH]c2c(N)ncnc12,8
4,CCCCSC[C@@H](CO)NCc1c[nH]c2c(N)ncnc12,16
5,CCCC[C@@H](CO)NCc1c[nH]c2c(N)ncnc12,16
6,CCC[C@@H](CO)NCc1c[nH]c2c(N)ncnc12,40
7,Nc1ncnc2c(CN[C@H](CO)CSCc3ccccc3)c[nH]c12,>80
8,CCCC[C@H](CO)NCc1c[nH]c2c(N)ncnc12,>80
9,CSC[C@@H](O)[C@@H](CO)NCc1c[nH]c2c(N)ncnc12,>80
10,Nc1ncnc2c(CN[C@H](CO)c3ccccc3)c[nH]c12,>80
11,CC[C@@H](CO)NCc1c[nH]c2c(N)ncnc12,>80
12,CSC[C@H](O)[C@H](CO)NCc1c[nH]c2c(N)ncnc12,>80
13,Nc1ncnc2c(CN[C@H](CO)Cc3c[nH]cn3)c[nH]c12,>80

# Same assay, conditions: Table 2; 72 h, microaerophilic, 37° C.
row,MIC90 against H. pylori,SMILES
1,>80,CCCCCCCCNCc1c[nH]c2c(N)ncnc12
2,>80,Nc1ncnc2c(CNCCO)c[nH]c12
